The source of these data is ChEMBL document CHEMBL4270545, “Design, synthesis and biological evaluation of 3-piperazinecarboxylate sarsasapogenin derivatives as potential multifunctional anti-Alzheimer agents” (2018).

As usually defined, the inhibition is the relative decrease from the control value, in per cent.

The test system of assay [1] is PC-12. Kind of assay: Neuroprotective activity against H2O2-induced cytotoxicity in rat PC12 cells assessed as cell viability at 10 uM after 24 hrs by MTT assay relative to control. The class given is functional. The note with it: for viability at 10 µM: PC-12, 24 h, read-out: Activity. A general note: Tetrazolium assays rely on reduction of a dye to a coloured formazan, in cell work by metabolically active cells.

In assay [2] the test system is RAW264.7. Kind of assay: Antiinflammatory activity in mouse RAW264.7 cells assessed as inhibition of LPS-induced nitric oxide production at 10 uM preincubated for 30 mins followed by LPS addition measured after 20 hrs by Griess assay relative to control. It counts as functional. On the technique in general: Griess reagent forms a coloured azo dye with nitrite.
For assay [3], the system named is PC-12. The experiment in a line: Neuroprotective activity against amyloid beta (1 to 42)-induced cytotoxicity in rat PC12 cells assessed as cell viability at 10 uM after 48 hrs by MTT assay (reference value: 55.3 to 64.4%). It counts as functional. The note with it: PC-12, 48 h, read-out: Activity.
In assay [4] the test system is PC-12. The experiment in a line: Neuroprotective activity against amyloid beta (1 to 42)-induced cytotoxicity in rat PC12 cells assessed as cell viability at 1 uM after 48 hrs by MTT assay (reference value: 55.3 to 64.4%). The class given is functional. The settings on record: PC-12, 48 h, read-out: Activity.
Assay [5] has as its system PC-12. Kind of assay: Neuroprotective activity against amyloid beta (1 to 42)-induced cytotoxicity in rat PC12 cells assessed as cell viability at 30 uM after 48 hrs by MTT assay (reference value: 55.3 to 64.4%). It counts as functional. The settings on record: PC-12, 48 h, read-out: Activity.
The test system of assay [6] is PC-12. Kind of assay: Neuroprotective activity against H2O2-induced cytotoxicity in rat PC12 cells assessed as cell viability at 1 mM after 24 hrs by MTT assay relative to control. It counts as functional. The note with it: PC-12, 24 h, read-out: Activity.
Assay [7] relates to Mus musculus. Kind of assay: Antialzheimer activity in cognitive deficit ICR mouse model assessed as reduction in amyloid beta (1 to 42)-induced spatial memory impairment at 6 mg/kg, ig qd administered for 7 consecutive days by Morris water maze test. The class given is functional, organism-based.

Active and inactive are the calls of the source. The calls are words filed in the database; no cut-off is given here.

With `C[C@H]1CC[C@@]2(OC1)O[C@H]1C[C@H]3[C@@H]4CC[C@@H]5C[C@@H](OC(=O)N6CCN(S(=O)(=O)c7ccccc7)CC6)CC[C@]5(C)[C@H]4CC[C@]3(C)[C@H]1[C@@H]2C`, the viability at 10 µM in assay [1] came to 20.8%. Also, the inhibition result in assay [2] was “inactive”.

Take `COc1ccc(C(=O)N2CCN(C(=O)O[C@H]3CC[C@@]4(C)[C@H](CC[C@@H]5[C@@H]4CC[C@]4(C)[C@@H]6[C@H](C[C@@H]54)O[C@]4(CC[C@H](C)CO4)[C@H]6C)C3)CC2)cc1`: in assay [1], the viability at 10 µM came out at 17.7%.

With `C[C@H]1CC[C@@]2(OC1)O[C@H]1C[C@H]3[C@@H]4CC[C@@H]5C[C@@H](OC(=O)N6CCN(Cc7ccc(N(C)C)cc7)CC6)CC[C@]5(C)[C@H]4CC[C@]3(C)[C@H]1[C@@H]2C`, the viability at 10 µM in assay [1] was found to be 22%. Also, in assay [2], the inhibition at 10 µM was found to be 5.6%.

In the case of `C[C@H]1CC[C@@]2(OC1)O[C@H]1C[C@H]3[C@@H]4CC[C@@H]5C[C@@H](OC(=O)N6CCN(Cc7ccccc7O)CC6)CC[C@]5(C)[C@H]4CC[C@]3(C)[C@H]1[C@@H]2C`, the viability at 10 µM in assay [1] came to 36.6%; in assay [3], 95.3%. In addition, in assay [2], the inhibition at 10 µM was found to be 15.2%. For the same compound, in assay [4], the viability at 1 µM came out at 59.3%.

With `CCCN1CCN(C(=O)O[C@H]2CC[C@@]3(C)[C@H](CC[C@@H]4[C@@H]3CC[C@]3(C)[C@@H]5[C@H](C[C@@H]43)O[C@]3(CC[C@H](C)CO3)[C@H]5C)C2)CC1`, the viability at 10 µM in assay [1] came to 18.9%.

On to `C[C@H]1CC[C@@]2(OC1)O[C@H]1C[C@H]3[C@@H]4CC[C@@H]5C[C@@H](OC(=O)N6CCN(Cc7ccccc7)CC6)CC[C@]5(C)[C@H]4CC[C@]3(C)[C@H]1[C@@H]2C`, for which the viability at 10 µM in assay [1] is 18.7%.

For the compound `C[C@H]1CC[C@@]2(OC1)O[C@H]1C[C@H]3[C@@H]4CC[C@@H]5C[C@@H](OC(=O)N6CCN(C(=O)c7ccc(Cl)cc7)CC6)CC[C@]5(C)[C@H]4CC[C@]3(C)[C@H]1[C@@H]2C`, the viability at 10 µM in assay [1] is 20.2%. Moreover, the inhibition entry in assay [2] was “inactive”.

In the case of `C[C@H]1CC[C@@]2(OC1)O[C@H]1C[C@H]3[C@@H]4CC[C@@H]5C[C@@H](O)CC[C@]5(C)[C@H]4CC[C@]3(C)[C@H]1[C@@H]2C` [SARSASAPOGENIN], the viability at 10 µM is 3.3% in assay [1] and 79.2% in assay [3]. Also, the viability at 30 µM in assay [5] stood at 58.9%.

Consider `CCS(=O)(=O)N1CCN(C(=O)O[C@H]2CC[C@@]3(C)[C@H](CC[C@@H]4[C@@H]3CC[C@]3(C)[C@@H]5[C@H](C[C@@H]43)O[C@]3(CC[C@H](C)CO3)[C@H]5C)C2)CC1`, for which, in assay [1], the viability at 10 µM turned out to be 6.8%.

Consider `Cc1ccc(S(=O)(=O)N2CCN(C(=O)O[C@H]3CC[C@@]4(C)[C@H](CC[C@@H]5[C@@H]4CC[C@]4(C)[C@@H]6[C@H](C[C@@H]54)O[C@]4(CC[C@H](C)CO4)[C@H]6C)C3)CC2)cc1`, for which the viability at 10 µM in assay [1] worked out at 29.5%. Further, the inhibition at 10 µM in assay [2] came to 4.8%.

Turning to `C[C@H]1CC[C@@]2(OC1)O[C@H]1C[C@H]3[C@@H]4CC[C@@H]5C[C@@H](OC(=O)N6CCN(Cc7ccc(C#N)cc7)CC6)CC[C@]5(C)[C@H]4CC[C@]3(C)[C@H]1[C@@H]2C`, the viability at 10 µM in assay [1] turned out to be 26.4%. Moreover, the inhibition at 10 µM in assay [2] was determined as 21.6%.

Turning to `Cc1ccc(CN2CCN(C(=O)O[C@H]3CC[C@@]4(C)[C@H](CC[C@@H]5[C@@H]4CC[C@]4(C)[C@@H]6[C@H](C[C@@H]54)O[C@]4(CC[C@H](C)CO4)[C@H]6C)C3)CC2)cc1`, the viability at 10 µM in assay [1] stood at 19.2%.

For the compound `C[C@H]1CC[C@@]2(OC1)O[C@H]1C[C@H]3[C@@H]4CC[C@@H]5C[C@@H](OC(=O)N6CCN(C(=O)c7ccccc7)CC6)CC[C@]5(C)[C@H]4CC[C@]3(C)[C@H]1[C@@H]2C`, the viability at 10 µM in assay [1] came out at 17.6%.

Regarding `C[C@H]1CC[C@@]2(OC1)O[C@H]1C[C@H]3[C@@H]4CC[C@@H]5C[C@@H](OC(=O)N6CCN(C(=O)c7ccc(N)cc7)CC6)CC[C@]5(C)[C@H]4CC[C@]3(C)[C@H]1[C@@H]2C`, the outcome in assay [1] was inactive.

`C[C@H]1CC[C@@]2(OC1)O[C@H]1C[C@H]3[C@@H]4CC[C@@H]5C[C@@H](OC(=O)N6CCN(Cc7ccc(O)cc7)CC6)CC[C@]5(C)[C@H]4CC[C@]3(C)[C@H]1[C@@H]2C`: the viability at 10 µM in assay [1] came out at 5.8%.

In the case of `CC(=O)N[C@@H](CS)C(=O)O` [ACETYLCYSTEINE], the viability at 1000 µM in assay [6] worked out at 35.3%.

As for `C[C@H]1CC[C@@]2(OC1)O[C@H]1C[C@H]3[C@@H]4CC[C@@H]5C[C@@H](OC(=O)N6CCN(Cc7ccc(F)cc7)CC6)CC[C@]5(C)[C@H]4CC[C@]3(C)[C@H]1[C@@H]2C`, the viability at 10 µM in assay [1] turned out to be 7.2%.

Consider `C[C@H]1CC[C@@]2(OC1)O[C@H]1C[C@H]3[C@@H]4CC[C@@H]5C[C@@H](OC(=O)N6CCN(S(=O)(=O)c7ccc(F)cc7)CC6)CC[C@]5(C)[C@H]4CC[C@]3(C)[C@H]1[C@@H]2C`, for which the viability at 10 µM in assay [1] is 8.5%.

For `C[C@H]1CC[C@@]2(OC1)O[C@H]1C[C@H]3[C@@H]4CC[C@@H]5C[C@@H](OC(=O)N6CCNCC6)CC[C@]5(C)[C@H]4CC[C@]3(C)[C@H]1[C@@H]2C`, in assay [1], the viability at 10 µM is 3.4%.

For the compound `COc1ccc(CN2CCN(C(=O)O[C@H]3CC[C@@]4(C)[C@H](CC[C@@H]5[C@@H]4CC[C@]4(C)[C@@H]6[C@H](C[C@@H]54)O[C@]4(CC[C@H](C)CO4)[C@H]6C)C3)CC2)cc1`, in assay [1], the viability at 10 µM stood at 33.1%. For the same compound, the inhibition at 10 µM in assay [2] is 1.3%.

Regarding `COc1cc(CN2CCN(C(=O)O[C@H]3CC[C@@]4(C)[C@H](CC[C@@H]5[C@@H]4CC[C@]4(C)[C@@H]6[C@H](C[C@@H]54)O[C@]4(CC[C@H](C)CO4)[C@H]6C)C3)CC2)ccc1O`, the viability at 10 µM amounted to 43.9% in assay [1] and 91.3% in assay [3]. For the same compound, the inhibition at 10 µM in assay [2] worked out at 24.4%. Further, the result in assay [7] was Active. Further, the viability at 1 µM in assay [4] amounted to 55.8%.
